Tests used:
[1] = system: PC3 and DU145 cells; test: Invasion assay (Matrigel chambers); type: cell-based, human; details: for PC3 and DU145 invasion: 10 μM, 4 h in situ
Method: (§1) Inhibitors were dissolved in DMSO and diluted into media or buffer prior to cell or proteome treatment, respectively. For in vitro treatment, final DMSO concentration was 4%. For in situ treatments of cells for ABPP, lipid measurements, migration, cell-survival, and invasion assays, 2×10^6 cells were seeded in 6 cm dishes (˜100% confluency) 24 h prior to inhibitor pre-treatment (in DMSO at 0.1% final concentration) in serum-free media (3 mL) for the designated time before harvesting cells for ABPP or lipid measurements or before the initiation of migration, cell-survival, and invasion assays.
Cell migration, cell survival, and invasion studies were performed as previously described (Nomura et al., 2010). Briefly, migration assays were performed in Transwell chambers (Corning) with 8 μm pore-sized membranes coated with 10 μg/mL collagen at 37° C. for LNCaP (24 h), PC3 (4 h) and DU145 cells (24 h), respectively. Cell survival assays were performed using the Cell Proliferation Reagent WST-1 (Roche) Invasion assays were conducted using the BD Matrigel Invasion Chambers per the manufacturer's protocol. Inhibitors were preincubated for the stated duration before seeding cells into migration, cell-survival, or invasion chambers. Prior to seeding the cells in these chambers, cells were serum-starved for 4 h. Inhibitors were also present during the migration, cell-survival, and invasion assays.

[2] = target: T1, FAAH (Mus musculus, UniProt O08914); test: Competitive ABPP of FAAH in mouse brain proteome; type: biochemical; details: gel-based competitive ABPP, 10 μM inhibitor
T1 construct: from tissue; host or cells: mouse brain
T1 sequence (O08914 1-579): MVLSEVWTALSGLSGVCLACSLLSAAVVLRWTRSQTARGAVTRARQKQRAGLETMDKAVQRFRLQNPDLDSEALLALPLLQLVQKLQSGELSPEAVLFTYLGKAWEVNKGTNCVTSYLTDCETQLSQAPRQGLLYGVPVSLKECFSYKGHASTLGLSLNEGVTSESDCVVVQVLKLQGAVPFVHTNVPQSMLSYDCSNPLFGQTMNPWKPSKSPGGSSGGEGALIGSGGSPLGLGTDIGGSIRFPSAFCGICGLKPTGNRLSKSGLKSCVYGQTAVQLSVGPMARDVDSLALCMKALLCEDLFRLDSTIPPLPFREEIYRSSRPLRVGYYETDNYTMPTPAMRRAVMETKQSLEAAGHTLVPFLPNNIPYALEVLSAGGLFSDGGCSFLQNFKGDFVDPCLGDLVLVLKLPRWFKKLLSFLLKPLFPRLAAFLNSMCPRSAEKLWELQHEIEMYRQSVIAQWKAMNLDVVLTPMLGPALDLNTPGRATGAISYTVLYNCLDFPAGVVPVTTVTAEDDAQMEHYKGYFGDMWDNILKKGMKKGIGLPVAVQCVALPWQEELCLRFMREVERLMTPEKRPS
Method: (§2) For ABPP experiments, cell lysate and tissue proteomes were treated with 1 μM FP-rhodamine for 30 min at room temperature (50 μL total reaction volume) as described previously (Nomura et al., 2010). Reactions were quenched with one volume of standard 4×SDS/PAGE loading buffer (reducing), separated by SDS/PAGE (10% acrylamide), and visualized in-gel with a Hitachi FMBio IIe flatbed fluorescence scanner (MiraiBio). Inhibitors were preincubated prior (30 min or 4 h at 37° C. in vitro or in situ, respectively) to the addition of FP-rhodamine.

[3] = target: T2, HSL (Mus musculus, UniProt P54310); test: Competitive ABPP of HSL in rosiglitazone-differentiated 3T3-10T1/2 adipocyte proteome; type: biochemical
T2 construct: ABPP analysis of HSL from a rosiglitazone-differentiated 3T3-10T1/2 adipocyte proteome; endogenous in cells; host or cells: rosiglitazone-differentiated 3T3-10T1/2 adipocytes
T2 sequence (P54310 1-759): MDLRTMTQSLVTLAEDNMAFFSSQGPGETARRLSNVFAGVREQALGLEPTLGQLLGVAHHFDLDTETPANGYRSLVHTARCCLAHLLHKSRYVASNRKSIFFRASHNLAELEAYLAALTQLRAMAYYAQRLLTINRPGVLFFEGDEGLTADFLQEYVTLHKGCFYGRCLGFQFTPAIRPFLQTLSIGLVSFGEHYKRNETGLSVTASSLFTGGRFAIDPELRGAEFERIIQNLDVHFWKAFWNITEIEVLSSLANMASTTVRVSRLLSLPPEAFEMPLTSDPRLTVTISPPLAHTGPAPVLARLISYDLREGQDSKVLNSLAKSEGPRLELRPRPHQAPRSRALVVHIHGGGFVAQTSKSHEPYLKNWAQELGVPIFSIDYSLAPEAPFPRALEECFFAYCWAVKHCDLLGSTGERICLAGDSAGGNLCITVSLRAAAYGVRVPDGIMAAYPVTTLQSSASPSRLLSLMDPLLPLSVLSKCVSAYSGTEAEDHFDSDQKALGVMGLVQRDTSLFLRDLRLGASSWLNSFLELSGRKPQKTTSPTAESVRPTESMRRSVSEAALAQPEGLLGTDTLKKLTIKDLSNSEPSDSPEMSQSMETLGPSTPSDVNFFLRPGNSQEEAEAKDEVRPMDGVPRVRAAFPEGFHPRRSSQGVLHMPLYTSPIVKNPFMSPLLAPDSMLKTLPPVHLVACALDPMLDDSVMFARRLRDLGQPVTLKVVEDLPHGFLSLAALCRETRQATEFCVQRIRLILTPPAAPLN
Method: as §2

[4] = target: T3, KIAA1363 (Homo sapiens, UniProt Q6PIU2); test: Gel-based competitive ABPP in PC3 cell proteomes, in vitro treatment; type: biochemical; parameters: PC3 cancer cells, which have high endogenous KIAA1363 levels; endogenous in cells; host or cells: PC3
T3 sequence (Q6PIU2 1-408): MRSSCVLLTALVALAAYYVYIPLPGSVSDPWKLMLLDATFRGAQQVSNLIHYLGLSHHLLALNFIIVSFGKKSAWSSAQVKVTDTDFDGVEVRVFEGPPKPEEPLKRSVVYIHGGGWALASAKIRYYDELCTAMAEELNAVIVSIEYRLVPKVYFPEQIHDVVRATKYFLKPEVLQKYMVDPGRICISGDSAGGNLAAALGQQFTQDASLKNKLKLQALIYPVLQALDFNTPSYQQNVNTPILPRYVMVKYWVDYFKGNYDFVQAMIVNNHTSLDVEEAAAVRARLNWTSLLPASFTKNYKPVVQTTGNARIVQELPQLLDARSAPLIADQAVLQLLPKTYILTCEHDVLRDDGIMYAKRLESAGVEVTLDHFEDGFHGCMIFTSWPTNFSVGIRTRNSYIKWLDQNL
Method: as §1, §2

Compound | PC3 and DU145 invasion [1] | Inhibition of FAAH / selectivity versus FAAH [2] | Cross-reactivity with HSL [3] | Selectivity for KIAA1363 by gel-based competitive ABPP ([4]; PC3 cells, also DU145 and LNCaP cells) | IC50 ([4]; in vitro treatment) | Invasion of PC3 cells ([1]; 1 μM, 48 h in situ)
COc1ccc(CNC(=O)Oc2cccc3c2OC(C)(C)C3)cc1 [JW148, 2,2-dimethyl-2,3-dihydrobenzofuran-7-yl 4-methoxybenzylcarbamate] | impair | good selectivity | cross-reactivity | – | – | –
CC(C)c1ccccc1OC(=O)NCCc1ccc2ccccc2c1 [JW480, 2-isopropylphenyl (2-(naphthalen-2-yl)ethyl)carbamate] | impair | – | negligible cross-reactivity | excellent selectivity | 12 nM | reduced

Reference: patent publication US9249128B2 (priority 2010, dated 2016)
